Values quoted from earlier work in patent EP1077694B1, “ARYL NITRONE THERAPEUTICS FOR THE TREATMENT OF INFLAMMATORY BOWEL DISEASE” (Renovis, Inc., priority 1998, dated 1999).

System: senescence-accelerated mice

## CC(C)(C)[N+]([O-])=Cc1ccccc1 [PBN, α-phenyl-t-butyl nitrone]
  increase the life span: one third
